Measured values as given in patent publication US11230538B2, “Herbicides” (SYNGENTA PARTICIPATIONS AG, priority 2016, dated 2022).

Assays:
Assay type in all cases: in vivo
[1] = system: Alopecurus myosuroides (ALOMY); assay: B2 Post-emergence herbicidal activity; design: key: 5=total damage to plant; 0=no damage to plant; conditions: post-emergence application, rate 1000 g/ha, evaluated after 13 days
Outline: (§1)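 Plants grown 8 days in standard soil in pots, then sprayed post-emergence with active ingredient in acetone/water (50:50) with 0.5% Tween 20. Glasshouse at 24/16 °C day/night, 14 h light, 65% humidity, watered twice daily. Damage scored after 13 days on a 0–5 scale (5 = total damage).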

[2] = system: Triticum aestivium (TRZAW); assay: B2 Post-emergence herbicidal activity; design: key: 5=total damage to plant; 0=no damage to plant; conditions: post-emergence application, rate 1000 g/ha, evaluated after 13 days
Outline: as §1

Setaria fabenri (SETFA) = assay: B2 Post-emergence herbicidal activity; design: key: 5=total damage to plant; 0=no damage to plant; conditions: post-emergence application, rate 1000 g/ha, evaluated after 13 days
Outline: as §1

Lolium perenne (LOLPE) [3] = assay: B1 Pre-emergence herbicidal activity; design: key to Pre-emergence herbicidal activity, LOLPE (damage score 0-5): 5=total damage to plant; 0=no damage to plant; conditions: pre-emergence application, rate 1000 g/ha, evaluated after 13 days
Outline: (§2)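 Seeds sown in standard soil in pots, held one day in a glasshouse (24/16 °C day/night, 14 h light, 65% humidity), then sprayed pre-emergence with compound in acetone/water (50:50) with 0.5% Tween 20. Plants grown under the same conditions, watered twice daily; damage scored after 13 days (0 = none, 5 = total).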

Setaria fabenr (SETFA) = assay: B1 Pre-emergence herbicidal activity; design: key to Pre-emergence herbicidal activity, SETFA (damage score 0-5): 5=total damage to plant; 0=no damage to plant; conditions: pre-emergence application, rate 1000 g/ha, evaluated after 13 days
Outline: as §2

Avena fatua (AVEFA) [4] = assay: B1 Pre-emergence herbicidal activity; design: key: 5=total damage to plant; 0=no damage to plant; conditions: pre-emergence application, rate 1000 g/ha, evaluated after 13 days
Outline: as §2

[5] = system: Alopecurus myosuroides (ALOMY); assay: B1 Pre-emergence herbicidal activity; design: key: 5=total damage to plant; 0=no damage to plant; conditions: pre-emergence application, rate 1000 g/ha, evaluated after 13 days
Outline: as §2

[6] = system: Triticum aestivium (TRZAW); assay: B1 Pre-emergence herbicidal activity; design: key: 5=total damage to plant; 0=no damage to plant; conditions: pre-emergence application, rate 1000 g/ha, evaluated after 13 days
Outline: as §2

Lolium perenne (LOLPE) [7] = assay: B2 Post-emergence herbicidal activity; conditions: post-emergence application, rate 1000 g/ha, evaluated after 13 days
Outline: as §1

Avena fatua (AVEFA) [8] = assay: B2 Post-emergence herbicidal activity; conditions: post-emergence application, rate 1000 g/ha, evaluated after 13 days
Outline: as §1

[9] = system: Echinochloa crus-galli (ECHCG); assay: B2 Post-emergence herbicidal activity; design: key to Post-emergence herbicidal activity, ECHCG (damage score 0-5): 5=total damage to plant; 0=no damage to plant; conditions: post-emergence application, rate 1000 g/ha, evaluated after 13 days
Outline: as §1

[10] = system: Echinochloa crus-galli (ECHCG); assay: B1 Pre-emergence herbicidal activity; design: key to Pre-emergence herbicidal activity, ECHCG (damage score 0-5): 5=total damage to plant; 0=no damage to plant; conditions: pre-emergence application, rate 1000 g/ha, evaluated after 13 days
Outline: as §2

SMILES	Post-emergence herbicidal activity, ALOMY (damage score 0-5) [1]	Post-emergence herbicidal activity, TRAZW (damage score 0-5) [2]	Post-emergence herbicidal activity, SETFA (damage score 0-5) (Setaria fabenri (SETFA))	Pre-emergence herbicidal activity, LOLPE (damage score 0-5) (Lolium perenne (LOLPE) [3])	Pre-emergence herbicidal activity, SETFA (damage score 0-5) (Setaria fabenr (SETFA))	Pre-emergence herbicidal activity, AVEFA (damage score 0-5) (Avena fatua (AVEFA) [4])	Pre-emergence herbicidal activity, ALOMY (damage score 0-5) [5]	Pre-emergence herbicidal activity, TRAZW (damage score 0-5) [6]	Post-emergence herbicidal activity, LOLPE (damage score 0-5) (Lolium perenne (LOLPE) [7])	Post-emergence herbicidal activity, AVEFA (damage score 0-5) (Avena fatua (AVEFA) [8])	Post-emergence herbicidal activity, ECHCG (damage score 0-5) [9]	Pre-emergence herbicidal activity, ECHCG (damage score 0-5) [10]
O=C(Nc1ccc(-c2cncc(F)c2)nc1C(F)(F)F)c1c(F)cccc1F [Compound C31]	0	0	5	0	5	2	1	0	3	3	5	4
O=C(Nc1ccc(-c2cncc(F)c2)nc1C(F)(F)F)c1cc(F)c(F)cc1F [Compound C33]	0	0	3	1	2	1	0	0	1	2	2	1
CC(C)(C)C(=O)Nc1ccc(-c2cncc(F)c2)nc1C(F)(F)F [Compound C34]	1	1	5	0	5	0	0	0	2	3	4	2
O=C(CCl)Nc1ccc(-c2cncc(F)c2)nc1C(F)(F)F [Compound C35]	0	0	5	1	4	1	0	0	2	3	5	4
CC(=O)OC(C)(C)C(=O)Nc1ccc(-c2cncc(F)c2)nc1C(F)(F)F [Compound C36]	0	1	5	1	4	1	0	0	1	2	5	4
CC(C)=CC(=O)Nc1ccc(-c2cncc(F)c2)nc1C(F)(F)F [Compound C37]	0	0	5	1	5	1	0	0	2	3	5	4
CC(C)=CC(=O)N(C(=O)C=C(C)C)c1ccc(-c2cncc(F)c2)nc1C(F)(F)F [Compound C38]	0	0	5	0	5	0	0	0	2	3	4	4
C=CCN(C(=O)CC)c1ccc(-c2cncc(F)c2)nc1C(F)(F)F [Compound C39]	0	1	5	1	5	2	0	0	2	3	5	4
CCOC(=O)CC(=O)Nc1ccc(-c2cncc(F)c2)nc1C(F)(F)F [Compound C42]	0	1	5	1	4	2	0	0	2	4	5	4
CCC(=O)N(C(=O)CC)c1ccc(-c2cncc(F)c2)nc1C(F)(F)F [Compound C44]	1	0	5	1	4	2	0	0	3	3	5	5
O=C(Nc1ccc(-c2cncc(F)c2)nc1C(F)(F)F)c1ccccn1 [Compound C45]	0	1	5	1	4	2	0	0	2	2	5	5
